Literature values, collected in US20250114373A1, “[…] INSERT COMPRISING AN ANTIMICROBIAL AGENT” (OCULAR THERAPEUTIX, INC., priority 2022, published 2025).

Columns and labels:
Conditions in all cases: values from Proksch, 2009
[1] = tested on: S. pneumoniae
[2] = tested on: H. influenzae
[3] = tested on: S. aureus
[4] = tested on: S. epidermidis

## N[C@@H]1CCCCN(c2c(F)cc3c(=O)c(C(=O)O)cn(C4CC4)c3c2Cl)C1 [Besifloxacin, (R)-7-(3-aminohexahydro-1H-azepin-1-yl)-8-chloro-1-cyclopropyl-6-fluoro-1,4-dihydro-4-oxo-3-quinolinecarboxylic acid]
[1]
  MIC90: (MIC90 of 0.125 μg/mL
[2]
  MIC90: (MIC90 of 0.06 μg/mL
[3]
  MIC90: (MIC90 of 0.25 μg/mL
[4]
  MIC90: (MIC90 of 0.5 μg/mL
